Measurements published in article PMC5218480 (PLoS ONE, 2017).

System: MV-4-11 cells
Assay: Gene expression microarray analysis (Affymetrix PrimeView) and GSEA
Type: cell-based, human
Design: RFU PODN (11730768_x_at) / Fold change /veh PODN (11730768_x_at) / RFU LINC00158 (11744669_a_at) / Fold change /veh LINC00158 (11744669_a_at) / RFU DUSP10 (11751237_a_at) / Fold change /veh DUSP10 (11751237_a_at) / RFU ID3 (11757404_x_at) / Fold change /veh ID3 (11757404_x_at) / RFU PLEKHG5 (11737974_s_at) / Fold change /veh PLEKHG5 (11737974_s_at) / RFU LRRC4B (11730491_at) / Fold change /veh LRRC4B (11730491_at) / RFU GIMAP4 (11747438_a_at) / Fold change /veh GIMAP4 (11747438_a_at) / RFU KRT8 (11758183_x_at) / Fold change /veh KRT8 (11758183_x_at) / RFU CNN1 (11734310_a_at) / Fold change /veh CNN1 (11734310_a_at) / RFU VPS37D (11726825_at) / Fold change /veh VPS37D (11726825_at) / RFU C10orf10 (11716522_x_at) / Fold change /veh C10orf10 (11716522_x_at) / RFU KIR2DL2 /// KIR2DL4 /// KIR2DL5A /// KIR2DL5B /// KIR2DS1 /// KIR2DS2 /// KIR2DS3 /// KIR2DS4 /// KIR3DL3 /// KIR3DL3 /// KIR3DS1 (11738374_at) / Fold change /veh KIR2DL2 /// KIR2DL4 /// KIR2DL5A /// KIR2DL5B /// KIR2DS1 /// KIR2DS2 /// KIR2DS3 /// KIR2DS4 /// KIR3DL3 /// KIR3DL3 /// KIR3DS1 (11738374_at) / RFU C1QL1 (11718748_at) / Fold change /veh C1QL1 (11718748_at) / RFU TMPRSS4 (11747572_a_at) / Fold change /veh TMPRSS4 (11747572_a_at) / RFU HAMP (11756126_x_at) / Fold change /veh HAMP (11756126_x_at) / RFU RNFT2 (11725882_a_at) / Fold change /veh RNFT2 (11725882_a_at) / RFU NR4A2 (11747474_a_at) / Fold change /veh NR4A2 (11747474_a_at) / RFU ABCC12 (11746883_a_at) / Fold change /veh ABCC12 (11746883_a_at) / RFU TMEM136 (11760407_x_at) / Fold change /veh TMEM136 (11760407_x_at) / RFU CLDN22 /// WWC2 (11732394_at) / Fold change /veh CLDN22 /// WWC2 (11732394_at) / RFU HLA-DPB1 (11760878_x_at) / Fold change /veh HLA-DPB1 (11760878_x_at) / RFU SPINT1 (11716480_a_at) / Fold change /veh SPINT1 (11716480_a_at) / RFU GAP43 (11754022_s_at) / Fold change /veh GAP43 (11754022_s_at) / RFU A4GNT (11735810_at) / Fold change /veh A4GNT (11735810_at) / RFU PRB3 (11715151_x_at) / Fold change /veh PRB3 (11715151_x_at) / RFU TUBB4B (11761932_at) / Fold change /veh TUBB4B (11761932_at) / RFU CAPN14 (11732068_a_at) / Fold change /veh CAPN14 (11732068_a_at) / RFU TMCC2 (11721928_a_at) / Fold change /veh TMCC2 (11721928_a_at) / RFU IRGQ (11745062_a_at) / Fold change /veh IRGQ (11745062_a_at) / RFU FAM174B (11720279_a_at) / Fold change /veh FAM174B (11720279_a_at) / RFU TMPRSS4 (11748680_a_at) / Fold change /veh TMPRSS4 (11748680_a_at) / RFU FAM212B (11763350_a_at) / Fold change /veh FAM212B (11763350_a_at) / RFU PLEKHG5 (11743358_a_at) / Fold change /veh PLEKHG5 (11743358_a_at) / RFU ZSCAN30 (11745921_a_at) / Fold change /veh ZSCAN30 (11745921_a_at) / RFU CMKLR1 (11741424_a_at) / Fold change /veh CMKLR1 (11741424_a_at) / RFU LOC101060620 /// MAPK8IP1 (11723275_at) / Fold change /veh LOC101060620 /// MAPK8IP1 (11723275_at) / RFU SPTSSB (11747773_x_at) / Fold change /veh SPTSSB (11747773_x_at) / RFU PRSS12 (11739890_at) / Fold change /veh PRSS12 (11739890_at) / RFU BIN1 (11741810_x_at) / Fold change /veh BIN1 (11741810_x_at) / RFU WNT11 (11732464_a_at) / Fold change /veh WNT11 (11732464_a_at) / RFU C10orf10 (11716521_a_at) / Fold change /veh C10orf10 (11716521_a_at) / RFU C5orf56 (11738089_at) / Fold change /veh C5orf56 (11738089_at) / RFU CYB561 (11721691_x_at) / Fold change /veh CYB561 (11721691_x_at) / RFU ANKRD19P (11752326_a_at) / Fold change /veh ANKRD19P (11752326_a_at) / RFU OR2T12 /// OR2T33 /// OR2T8 (11738714_s_at) / Fold change /veh OR2T12 /// OR2T33 /// OR2T8 (11738714_s_at) / RFU VCAN (11748164_a_at) / Fold change /veh VCAN (11748164_a_at) / RFU JSRP1 (11732532_at) / Fold change /veh JSRP1 (11732532_at) / RFU KRTAP10-11 (11738290_x_at) / Fold change /veh KRTAP10-11 (11738290_x_at) / RFU MYO3A (11730013_a_at) / Fold change /veh MYO3A (11730013_a_at) / RFU EBF3 (11725865_a_at) / Fold change /veh EBF3 (11725865_a_at) / RFU CAMK2N1 (11719241_x_at) / Fold change /veh CAMK2N1 (11719241_x_at) / RFU C5orf56 (11738088_a_at) / Fold change /veh C5orf56 (11738088_a_at) / RFU OLFML3 (11715873_a_at) / Fold change /veh OLFML3 (11715873_a_at) / RFU LOC100653217 /// NTM (11731650_a_at) / Fold change /veh LOC100653217 /// NTM (11731650_a_at) / RFU MAPK11 (11762145_a_at) / Fold change /veh MAPK11 (11762145_a_at) / RFU FIZ1 (11724087_x_at) / Fold change /veh FIZ1 (11724087_x_at) / RFU OASL (11726364_x_at) / Fold change /veh OASL (11726364_x_at) / RFU SOX15 (11748057_x_at) / Fold change /veh SOX15 (11748057_x_at) / RFU CD79A (11719716_a_at) / Fold change /veh CD79A (11719716_a_at) / RFU HIST1H1D (11736915_at) / Fold change /veh HIST1H1D (11736915_at) / RFU CASKIN2 (11723855_a_at) / Fold change /veh CASKIN2 (11723855_a_at) / RFU LOC730098 (11760151_x_at) / Fold change /veh LOC730098 (11760151_x_at) / RFU OR4N2 (11742367_at) / Fold change /veh OR4N2 (11742367_at) / RFU PRRT2 (11749266_a_at) / Fold change /veh PRRT2 (11749266_a_at) / RFU SNX32 (11753110_a_at) / Fold change /veh SNX32 (11753110_a_at) / RFU CDHR5 (11726645_a_at) / Fold change /veh CDHR5 (11726645_a_at) / RFU RCAN1 (11760418_a_at) / Fold change /veh RCAN1 (11760418_a_at) / RFU FAM167A (11723789_a_at) / Fold change /veh FAM167A (11723789_a_at) / RFU FAM26E (11764081_at) / Fold change /veh FAM26E (11764081_at) / RFU ISYNA1 (11749810_s_at) / Fold change /veh ISYNA1 (11749810_s_at) / RFU ACY1 (11761880_at) / Fold change /veh ACY1 (11761880_at) / RFU 11764098_at / Fold change /veh 11764098_at / RFU SAMD14 (11745864_x_at) / Fold change /veh SAMD14 (11745864_x_at) / RFU NPB (11741838_a_at) / Fold change /veh NPB (11741838_a_at) / RFU TMPRSS6 (11731388_a_at) / Fold change /veh TMPRSS6 (11731388_a_at) / RFU KRTAP10-2 (11738614_at) / Fold change /veh KRTAP10-2 (11738614_at) / RFU ARHGAP8 /// PRR5-ARHGAP8 (11727945_x_at) / Fold change /veh ARHGAP8 /// PRR5-ARHGAP8 (11727945_x_at) / RFU KRTAP5-7 /// NADSYN1 (11734609_at) / Fold change /veh KRTAP5-7 /// NADSYN1 (11734609_at) / RFU RASL12 (11751679_a_at) / Fold change /veh RASL12 (11751679_a_at) / RFU CDKN2B (11736163_a_at) / Fold change /veh CDKN2B (11736163_a_at) / RFU PRF1 (11729649_at) / Fold change /veh PRF1 (11729649_at) / RFU, ZNF638 /// ZNF638-IT1 / Fold change vs veh, ZNF638 /// ZNF638-IT1 / RFU, PANK3 / Fold change vs veh, PANK3 / RFU, SH3YL1 / Fold change vs veh, SH3YL1 / RFU, ZEB2 / Fold change vs veh, ZEB2 / RFU, NRIP1 / Fold change vs veh, NRIP1 / RFU, PTTG1IP / Fold change vs veh, PTTG1IP / RFU, CAPN2 / Fold change vs veh, CAPN2 / RFU, MED14 / Fold change vs veh, MED14 / RFU, SNORA58 / Fold change vs veh, SNORA58 / RFU, C1orf63 / Fold change vs veh, C1orf63 / RFU, LRRFIP1 / Fold change vs veh, LRRFIP1 / RFU, NDUFAF7 / Fold change vs veh, NDUFAF7 / RFU, SLC12A2 / Fold change vs veh, SLC12A2 / RFU, IBTK / Fold change vs veh, IBTK / RFU, ESF1 / Fold change vs veh, ESF1 / Fold change vs veh, TMEM50B / RFU, TAOK1 / Fold change vs veh, TAOK1 / RFU, ACBD3 / Fold change vs veh, ACBD3 / RFU, TMA16 / Fold change vs veh, TMA16 / RFU, RWDD3 / Fold change vs veh, RWDD3 / RFU, BCAT1 / Fold change vs veh, BCAT1 / RFU, EDEM3 / Fold change vs veh, EDEM3 / RFU, TMEM33 / Fold change vs veh, TMEM33 / RFU, WDR75 / Fold change vs veh, WDR75 / RFU, AHCTF1 / Fold change vs veh, AHCTF1 / RFU, TFRC / Fold change vs veh, TFRC / RFU, ZDHHC17 / Fold change vs veh, ZDHHC17 / RFU, NOM1 / Fold change vs veh, NOM1 / RFU, ARL8B / Fold change vs veh, ARL8B / RFU, ZBTB11 / Fold change vs veh, ZBTB11 / RFU, TAMM41 / Fold change vs veh, TAMM41 / RFU, KIAA1704 /// LOC100996395 / Fold change vs veh, KIAA1704 /// LOC100996395 / RFU, ING1 / Fold change vs veh, ING1 / RFU, TRMT61B / Fold change vs veh, TRMT61B / RFU, FUBP3 / Fold change vs veh, FUBP3 / RFU, TP53 / Fold change vs veh, TP53 / RFU, TNKS2 / Fold change vs veh, TNKS2 / RFU, ZFP14 / Fold change vs veh, ZFP14 / RFU, ACTR2 / Fold change vs veh, ACTR2 / RFU, PPP3R1 / Fold change vs veh, PPP3R1 / RFU, PIK3R1 / Fold change vs veh, PIK3R1 / RFU, HNRNPA1 / Fold change vs veh, HNRNPA1 / RFU, RNF170 / Fold change vs veh, RNF170 / RFU, ZNF28 / Fold change vs veh, ZNF28 / RFU, RNGTT / Fold change vs veh, RNGTT / RFU, OGT / Fold change vs veh, OGT / RFU, BRD1 / Fold change vs veh, BRD1 / RFU, MARS / Fold change vs veh, MARS / RFU, ZNF655 / Fold change vs veh, ZNF655 / RFU, FAHD1 / Fold change vs veh, FAHD1 / RFU, BDP1 / Fold change vs veh, BDP1 / RFU, LRRCC1 / Fold change vs veh, LRRCC1 / RFU, ARID1A / Fold change vs veh, ARID1A / RFU, ZNF146 / Fold change vs veh, ZNF146 / RFU, ZNF330 / Fold change vs veh, ZNF330 / RFU, GPN3 / Fold change vs veh, GPN3 / RFU, C9orf123 / Fold change vs veh, C9orf123 / RFU, N4BP2L2 / Fold change vs veh, N4BP2L2 / RFU, ARFIP1 / Fold change vs veh, ARFIP1 / RFU, FAM179B / Fold change vs veh, FAM179B / RFU, BCL10 / Fold change vs veh, BCL10 / RFU, UHRF1BP1L / Fold change vs veh, UHRF1BP1L / RFU, BET1 / Fold change vs veh, BET1 / RFU, CNOT2 / Fold change vs veh, CNOT2 / RFU, ZNF268 / Fold change vs veh, ZNF268 / Fold change vs veh, ZNF507 / RFU, DGCR2 / Fold change vs veh, DGCR2 / RFU, WDSUB1 / Fold change vs veh, WDSUB1 / Fold change vs veh, HSP90B1 /// MIR3652 / RFU, ADSS / Fold change vs veh, ADSS / RFU, GK / Fold change vs veh, GK / RFU, ZNF148 / Fold change vs veh, ZNF148 / RFU, TAF9 / Fold change vs veh, TAF9 / RFU, SLC1A5 / Fold change vs veh, SLC1A5 / RFU, SLMO2 / Fold change vs veh, SLMO2 / RFU, ABCC4 / Fold change vs veh, ABCC4 / RFU, LOC101060439 /// RAP1B / Fold change vs veh, LOC101060439 /// RAP1B / RFU, RFX7 / Fold change vs veh, RFX7 / RFU, GTPBP10 / Fold change vs veh, GTPBP10 / RFU, CNEP1R1 / Fold change vs veh, CNEP1R1 / RFU, BIVM-ERCC5 /// ERCC5 / Fold change vs veh, BIVM-ERCC5 /// ERCC5 / RFU, ILF3 / Fold change vs veh, ILF3 / RFU 11762660_at / Fold change /veh 11762660_at / RFU VCAN (11757783_s_at) / Fold change /veh VCAN (11757783_s_at) / RFU DDX43 (11728927_at) / Fold change /veh DDX43 (11728927_at) / RFU KRT8 (11758188_x_at) / Fold change /veh KRT8 (11758188_x_at) / RFU NKD1 (11759106_at) / Fold change /veh NKD1 (11759106_at) / RFU SRD5A1 (11742802_a_at) / Fold change /veh SRD5A1 (11742802_a_at) / RFU TPSAB1 /// TPSB2 (11721975_s_at) / Fold change /veh TPSAB1 /// TPSB2 (11721975_s_at) / RFU GSTM3 (11746129_a_at) / Fold change /veh GSTM3 (11746129_a_at) / RFU IL23R (11737362_x_at) / Fold change /veh IL23R (11737362_x_at) / RFU TMEM51 (11727254_a_at) / Fold change /veh TMEM51 (11727254_a_at) / RFU PIWIL2 (11732686_x_at) / Fold change /veh PIWIL2 (11732686_x_at) / RFU ORM1 (11744905_x_at) / Fold change /veh ORM1 (11744905_x_at) / RFU CCDC152 (11743942_at) / Fold change /veh CCDC152 (11743942_at) / RFU ECM1 (11717891_a_at) / Fold change /veh ECM1 (11717891_a_at) / RFU IL23R (11748794_a_at) / Fold change /veh IL23R (11748794_a_at) / RFU TNFAIP8L3 (11732012_x_at) / Fold change /veh TNFAIP8L3 (11732012_x_at) / RFU MBOAT4 (11741988_at) / Fold change /veh MBOAT4 (11741988_at) / RFU 11764193_at / Fold change /veh 11764193_at / RFU TMEM53 (11763286_at) / Fold change /veh TMEM53 (11763286_at) / RFU MAGEB2 (11727129_at) / Fold change /veh MAGEB2 (11727129_at) / RFU TMEM200A (11744735_a_at) / Fold change /veh TMEM200A (11744735_a_at) / RFU CCDC152 (11751479_a_at) / Fold change /veh CCDC152 (11751479_a_at) / RFU FAM211A (11726209_a_at) / Fold change /veh FAM211A (11726209_a_at) / RFU RGS16 (11746705_a_at) / Fold change /veh RGS16 (11746705_a_at) / RFU VCAN (11755009_s_at) / Fold change /veh VCAN (11755009_s_at) / RFU RHOB (11743442_s_at) / Fold change /veh RHOB (11743442_s_at) / RFU RGS16 (11720943_a_at) / Fold change /veh RGS16 (11720943_a_at) / RFU RGS16 (11720944_at) / Fold change /veh RGS16 (11720944_at) / RFU, VPS4B / Fold change vs veh, VPS4B / RFU, CREB1 / Fold change vs veh, CREB1 / RFU, DNAJC13 / Fold change vs veh, DNAJC13 / RFU, GNAQ / Fold change vs veh, GNAQ / RFU, CDK5R1 / Fold change vs veh, CDK5R1 / RFU, ZRANB3 / Fold change vs veh, ZRANB3 / RFU, CUL4A / Fold change vs veh, CUL4A / RFU, CCNY / Fold change vs veh, CCNY / RFU, UFL1 / Fold change vs veh, UFL1 / RFU, COG3 / Fold change vs veh, COG3 / RFU, DIAPH2 / Fold change vs veh, DIAPH2 / RFU, SKA2 / Fold change vs veh, SKA2 / RFU, AFF3 / Fold change vs veh, AFF3 / RFU, LMF1 / Fold change vs veh, LMF1 / RFU, IPO11 / Fold change vs veh, IPO11 / RFU, DFFB / Fold change vs veh, DFFB / RFU, FOXP1 / Fold change vs veh, FOXP1 / RFU, CARD8 / Fold change vs veh, CARD8 / RFU, STRN3 / Fold change vs veh, STRN3 / RFU, ADK / Fold change vs veh, ADK / RFU, RASSF2 / Fold change vs veh, RASSF2 / RFU, WIPF1 / Fold change vs veh, WIPF1 / RFU, LARP1B / Fold change vs veh, LARP1B / RFU, RASA1 / Fold change vs veh, RASA1 / RFU, RB1 / Fold change vs veh, RB1 / RFU, PPFIA1 / Fold change vs veh, PPFIA1 / RFU, MAT2A / Fold change vs veh, MAT2A / RFU, CCT5 / Fold change vs veh, CCT5 / RFU, WDR92 / Fold change vs veh, WDR92 / RFU, CUX1 / Fold change vs veh, CUX1 / RFU, TTC7A / Fold change vs veh, TTC7A / RFU, TMEM135 / Fold change vs veh, TMEM135 / RFU, DEPTOR / Fold change vs veh, DEPTOR / RFU, CPM / Fold change vs veh, CPM / RFU, DNAJB6 / Fold change vs veh, DNAJB6 / RFU, CACNA2D3 / Fold change vs veh, CACNA2D3 / RFU, DTX4 / Fold change vs veh, DTX4 / RFU, TFCP2 / Fold change vs veh, TFCP2 / RFU, GMCL1 /// GMCL1P1 / Fold change vs veh, GMCL1 /// GMCL1P1 / RFU, AEBP2 / Fold change vs veh, AEBP2 / RFU, SNHG1 /// SNORD22 /// SNORD25 /// SNORD26 /// SNORD27 /// SNORD28 /// SNORD29 /// SNORD31 / Fold change vs veh, SNHG1 /// SNORD22 /// SNORD25 /// SNORD26 /// SNORD27 /// SNORD28 /// SNORD29 /// SNORD31 / Fold change (Aza/veh), C12orf56 (ProbeSet 11735607_a_at) / Fold change (ACY-1035/veh), C12orf56 (ProbeSet 11735607_a_at) / Fold change (Aza/veh), FGFR1OP (ProbeSet 11751329_s_at) / Fold change (ACY-1035/veh), FGFR1OP (ProbeSet 11751329_s_at) / Fold change (Aza/veh), VPS36 (ProbeSet 11739960_a_at) / Fold change (ACY-1035/veh), VPS36 (ProbeSet 11739960_a_at) / RFU SYPL1 (11715823_x_at) / Fold change /veh SYPL1 (11715823_x_at) / RFU IGFBP7 (11715501_s_at) / Fold change /veh IGFBP7 (11715501_s_at) / RFU REEP3 (11722064_at) / Fold change /veh REEP3 (11722064_at) / RFU IGLL1 (11728026_x_at) / Fold change /veh IGLL1 (11728026_x_at): dose or concentration left out as unconfirmed
Details: MV-4-11 cells, 48 hours

Nc1ccc(-c2cccs2)cc1NC(=O)c1ccc2c(c1)cc(C1CC1)n2CCN1CCOCC1 [ACY-1035]
RFU SOX15 (11748057_x_at): 11.14 RFU
